Measured values as given in PubChem BioAssay AID1963842 (Molecular Pharmacology Branch, DTP, NCI, 2024).

Test system: 677734-321-R-J1-PDC complex spheroid viability
Assay: Anticancer human tumor 677734-321-R-J1-PDC patient-derived soft tissue sarcoma cell line growth inhibition [POLQ]
Details: for IC50: curve of first compound; for viability, T/C: stronger effect = lower value
Summary of the method: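 Patient-derived tumour cells were co-cultured with HUVEC and mesenchymal stem cells as multicellular spheroids at 37 °C. They were treated with POLQ inhibitors (novobiocin, ART-558, RP6685) alone or combined with other agents. Top concentrations were at or near clinical Cmax (otherwise 10 microM; SN-38 at 1 microM), decreasing in half-log steps.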

[1] = second compound 0.0316 µM, first compound 0.00316 µM
[2] = second compound 0.0316 µM, first compound 0.01 µM
[3] = second compound 0.0316 µM, first compound 0.0316 µM
[4] = second compound 0.0316 µM, first compound 0.1 µM
[5] = second compound 0.0316 µM, first compound 0.316 µM
[6] = second compound 0.0316 µM, first compound 1 µM
[7] = second compound 0.1 µM, first compound 0.00316 µM
[8] = second compound 0.1 µM, first compound 0.01 µM
[9] = second compound 0.1 µM, first compound 0.0316 µM
[10] = second compound 0.1 µM, first compound 0.1 µM
[11] = second compound 0.1 µM, first compound 0.316 µM
[12] = second compound 0.1 µM, first compound 1 µM
[13] = second compound 0.316 µM, first compound 0.00316 µM
[14] = second compound 0.316 µM, first compound 0.01 µM
[15] = second compound 0.316 µM, first compound 0.0316 µM
[16] = second compound 0.316 µM, first compound 0.1 µM
[17] = second compound 0.316 µM, first compound 0.316 µM
[18] = second compound 0.316 µM, first compound 1 µM
[19] = second compound 1 µM, first compound 0.00316 µM
[20] = second compound 1 µM, first compound 0.01 µM
[21] = second compound 1 µM, first compound 0.0316 µM
[22] = second compound 1 µM, first compound 0.1 µM
[23] = second compound 1 µM, first compound 0.316 µM
[24] = second compound 1 µM, first compound 1 µM
[25] = second compound 3.16 µM, first compound 0.00316 µM
[26] = second compound 3.16 µM, first compound 0.01 µM
[27] = second compound 3.16 µM, first compound 0.0316 µM
[28] = second compound 3.16 µM, first compound 0.1 µM
[29] = second compound 3.16 µM, first compound 0.316 µM
[30] = second compound 3.16 µM, first compound 1 µM
[31] = second compound 10 µM, first compound 0.00316 µM
[32] = second compound 10 µM, first compound 0.01 µM
[33] = second compound 10 µM, first compound 0.0316 µM
[34] = second compound 10 µM, first compound 0.1 µM
[35] = second compound 10 µM, first compound 0.316 µM
[36] = second compound 10 µM, first compound 1 µM
[37] = second compound 0.0316 µM, first compound 3.16 µM
[38] = second compound 0.0316 µM, first compound 10 µM
[39] = second compound 0.1 µM, first compound 3.16 µM
[40] = second compound 0.1 µM, first compound 10 µM
[41] = second compound 0.316 µM, first compound 3.16 µM
[42] = second compound 0.316 µM, first compound 10 µM
[43] = second compound 1 µM, first compound 3.16 µM
[44] = second compound 1 µM, first compound 10 µM
[45] = second compound 3.16 µM, first compound 3.16 µM
[46] = second compound 3.16 µM, first compound 10 µM
[47] = second compound 10 µM, first compound 3.16 µM
[48] = second compound 10 µM, first compound 10 µM
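Note: spheroids exposed to compounds for one week.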
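Throughout, for viability, T/C: 100% = vehicle DMSO treated spheroids.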

Compound: C=CCn1c(=O)c2cnc(Nc3ccc(N4CCN(C)CC4)cc3)nc2n1-c1cccc(C(C)(C)O)n1 + Nc1ccc(C#CCN(C(=O)Cc2ncc(C(F)(F)F)cc2C(F)(F)F)c2ccc(F)cc2)nn1
- IC50 (second compound 0.0316 µM): 727 nM
- IC50 (second compound 0.1 µM): 682 nM
- IC50 (second compound 0.316 µM): 664 nM
- IC50 (second compound 1 µM): 644 nM
- IC50 (second compound 3.16 µM): 496 nM
- IC50 (second compound 10 µM): 805 nM
- viability, T/C [1]: 114%
- viability, T/C [2]: 107%
- viability, T/C [3]: 102%
- viability, T/C [4]: 102%
- viability, T/C [5]: 84.1%
- viability, T/C [6]: 36.7%
- viability, T/C [7]: 107%
- viability, T/C [8]: 111%
- viability, T/C [9]: 122%
- viability, T/C [10]: 97.2%
- viability, T/C [11]: 80.8%
- viability, T/C [12]: 35.1%
- viability, T/C [13]: 119%
- viability, T/C [14]: 102%
- viability, T/C [15]: 110%
- viability, T/C [16]: 104%
- viability, T/C [17]: 81.1%
- viability, T/C [18]: 32.5%
- viability, T/C [19]: 106%
- viability, T/C [20]: 102%
- viability, T/C [21]: 112%
- viability, T/C [22]: 93.2%
- viability, T/C [23]: 85.4%
- viability, T/C [24]: 29.3%
- viability, T/C [25]: 114%
- viability, T/C [26]: 96.3%
- viability, T/C [27]: 103%
- viability, T/C [28]: 104%
- viability, T/C [29]: 59%
- viability, T/C [30]: 35.9%
- viability, T/C [31]: 116%
- viability, T/C [32]: 113%
- viability, T/C [33]: 108%
- viability, T/C [34]: 97.1%
- viability, T/C [35]: 74.6%
- viability, T/C [36]: 44.2%

Compound: CCCS(=O)(=O)Nc1ccc(F)c(C(=O)c2c[nH]c3ncc(-c4ccc(Cl)cc4)cc23)c1F + Nc1ccc(C#CCN(C(=O)Cc2ncc(C(F)(F)F)cc2C(F)(F)F)c2ccc(F)cc2)nn1
- IC50 (second compound 0.0316 µM): 5070 nM
- IC50 (second compound 0.1 µM): 5350 nM
- IC50 (second compound 0.316 µM): 5460 nM
- IC50 (second compound 1 µM): 4500 nM
- IC50 (second compound 3.16 µM): 4290 nM
- IC50 (second compound 10 µM): 4700 nM
- viability, T/C [3]: 96.6%
- viability, T/C [4]: 106%
- viability, T/C [5]: 97.2%
- viability, T/C [6]: 104%
- viability, T/C [37]: 80%
- viability, T/C [38]: 7%
- viability, T/C [9]: 107%
- viability, T/C [10]: 109%
- viability, T/C [11]: 87.5%
- viability, T/C [12]: 98.9%
- viability, T/C [39]: 86.8%
- viability, T/C [40]: 6.32%
- viability, T/C [15]: 99%
- viability, T/C [16]: 101%
- viability, T/C [17]: 102%
- viability, T/C [18]: 108%
- viability, T/C [41]: 87.9%
- viability, T/C [42]: 7.94%
- viability, T/C [21]: 107%
- viability, T/C [22]: 103%
- viability, T/C [23]: 107%
- viability, T/C [24]: 98.6%
- viability, T/C [43]: 68%
- viability, T/C [44]: 9.46%
- viability, T/C [27]: 121%
- viability, T/C [28]: 110%
- viability, T/C [29]: 102%
- viability, T/C [30]: 96.6%
- viability, T/C [45]: 67.2%
- viability, T/C [46]: 5.17%
- viability, T/C [33]: 96.8%
- viability, T/C [34]: 105%
- viability, T/C [35]: 96.1%
- viability, T/C [36]: 113%
- viability, T/C [47]: 73.2%
- viability, T/C [48]: 5.45%

Compound: CNCc1ccc(-c2[nH]c3cc(F)cc4c3c2CCNC4=O)cc1 + Nc1ccc(C#CCN(C(=O)Cc2ncc(C(F)(F)F)cc2C(F)(F)F)c2ccc(F)cc2)nn1
- IC50 (second compound 0.0316 µM): > 10000 nM
- IC50 (second compound 0.1 µM): > 10000 nM
- IC50 (second compound 0.316 µM): > 10000 nM
- IC50 (second compound 1 µM): > 10000 nM
- IC50 (second compound 3.16 µM): > 10000 nM
- IC50 (second compound 10 µM): > 10000 nM
- viability, T/C [3]: 90.2%
- viability, T/C [4]: 99.6%
- viability, T/C [5]: 100%
- viability, T/C [6]: 81%
- viability, T/C [37]: 101%
- viability, T/C [38]: 81.6%
- viability, T/C [9]: 113%
- viability, T/C [10]: 106%
- viability, T/C [11]: 107%
- viability, T/C [12]: 100%
- viability, T/C [39]: 106%
- viability, T/C [40]: 61.8%
- viability, T/C [15]: 100%
- viability, T/C [16]: 109%
- viability, T/C [17]: 106%
- viability, T/C [18]: 127%
- viability, T/C [41]: 94.5%
- viability, T/C [42]: 80.1%
- viability, T/C [21]: 118%
- viability, T/C [22]: 86.4%
- viability, T/C [23]: 106%
- viability, T/C [24]: 91.8%
- viability, T/C [43]: 88.7%
- viability, T/C [44]: 67.4%
- viability, T/C [27]: 97.7%
- viability, T/C [28]: 109%
- viability, T/C [29]: 109%
- viability, T/C [30]: 113%
- viability, T/C [45]: 101%
- viability, T/C [46]: 63.5%
- viability, T/C [33]: 97.4%
- viability, T/C [34]: 99.3%
- viability, T/C [35]: 89.2%
- viability, T/C [36]: 114%
- viability, T/C [47]: 107%
- viability, T/C [48]: 63.6%

Compound: Cn1ncnc1[C@H]1c2n[nH]c(=O)c3cc(F)cc(c23)N[C@@H]1c1ccc(F)cc1 + Nc1ccc(C#CCN(C(=O)Cc2ncc(C(F)(F)F)cc2C(F)(F)F)c2ccc(F)cc2)nn1
- IC50 (second compound 0.0316 µM): > 100 nM
- IC50 (second compound 0.1 µM): > 100 nM
- IC50 (second compound 0.316 µM): > 100 nM
- IC50 (second compound 1 µM): > 100 nM
- IC50 (second compound 3.16 µM): > 100 nM
- IC50 (second compound 10 µM): > 100 nM
- viability, T/C (second compound 0.0316 µM, first compound 0.000316 µM): 79.4%
- viability, T/C (second compound 0.0316 µM, first compound 0.001 µM): 105%
- viability, T/C [1]: 86.2%
- viability, T/C [2]: 93.1%
- viability, T/C [3]: 99.6%
- viability, T/C [4]: 79.8%
- viability, T/C (second compound 0.1 µM, first compound 0.000316 µM): 92.4%
- viability, T/C (second compound 0.1 µM, first compound 0.001 µM): 89.2%
- viability, T/C [7]: 97.3%
- viability, T/C [8]: 100%
- viability, T/C [9]: 95%
- viability, T/C [10]: 88.7%
- viability, T/C (second compound 0.316 µM, first compound 0.000316 µM): 113%
- viability, T/C (second compound 0.316 µM, first compound 0.001 µM): 111%
- viability, T/C [13]: 109%
- viability, T/C [14]: 97.4%
- viability, T/C [15]: 75.2%
- viability, T/C [16]: 72.8%
- viability, T/C (second compound 1 µM, first compound 0.000316 µM): 112%
- viability, T/C (second compound 1 µM, first compound 0.001 µM): 97.8%
- viability, T/C [19]: 93.3%
- viability, T/C [20]: 95.2%
- viability, T/C [21]: 85.8%
- viability, T/C [22]: 68.1%
- viability, T/C (second compound 3.16 µM, first compound 0.000316 µM): 108%
- viability, T/C (second compound 3.16 µM, first compound 0.001 µM): 95.2%
- viability, T/C [25]: 100%
- viability, T/C [26]: 98%
- viability, T/C [27]: 99.7%
- viability, T/C [28]: 93.7%
- viability, T/C (second compound 10 µM, first compound 0.000316 µM): 115%
- viability, T/C (second compound 10 µM, first compound 0.001 µM): 95.9%
- viability, T/C [31]: 101%
- viability, T/C [32]: 94.1%
- viability, T/C [33]: 97.9%
- viability, T/C [34]: 87.2%
